Laboratory results from patent publication US20090130212A1, “COMPOSITION AND IMPROVED METHOD FOR PREPARATION OF SMALL PARTICLES” (PHYSICAL PHARMACEUTICA, LLC, priority 2006, published 2009).

How the values were obtained:
Type in all cases: physicochemical
[1] = Aqueous solubility of ibuprofen; conditions: pH 2, in 50 ml
[2] = Dissolution of ibuprofen in 0.01N HCl, microdialysis sampling and HPLC (Example 3); conditions: 50 ml 0.01N HCl pH 2, 25° C
Method: The remaining ether was removed by evaporation at room temperature in a vacuum oven at less than 10 torr, for 2 hours.

[3] = pKa / ionization of ibuprofen; conditions: pH of 2

## CC(C)Cc1ccc(C(C)C(=O)O)cc1 (centres unmarked) [pure ibuprofen, ibuprofen]
[1]
  amount dissolved corresponding to solubility: 4000 µg
[2]; after five minutes
  amount of ibuprofen dissolved: approximately 790 mcg
[2]; after one minute
  amount of ibuprofen dissolved: approximately 190 mcg
[2]; after two minutes
  amount of ibuprofen dissolved: approximately 350 mcg
[3]
  fraction unionized: more than 99%
